Results taken from PubChem BioAssay (NCI).
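Grown in 96-well plates, cells were treated for 48 hours with each compound at five concentrations. Insufficient inhibition: endpoint recorded as highest concentration tested. Here, GI50 denotes the concentration required for 50% inhibition of growth. TGI: concentration producing complete growth inhibition.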

Legend:
Assay in all cases: DTP human tumour cell line panel, 48 h
[1] = test system: SK-MEL-28 melanoma
[2] = test system: HCT-116 colon
[3] = test system: SW-620 colon
[4] = test system: SN12C renal
[5] = test system: CCRF-CEM leukemia
[6] = test system: RXF 393 renal
[7] = test system: MOLT-4 leukemia
[8] = test system: RPMI-8226 leukemia
[9] = test system: PC-3 prostate
[10] = test system: NCI/ADR-RES ovarian
[11] = test system: UACC-62 melanoma
[12] = test system: NCI-H460 lung
[13] = test system: SK-MEL-5 melanoma
[14] = test system: MDA-MB-231 breast
[15] = test system: HOP-92 NSCLC
[16] = test system: U251 CNS
[17] = test system: UACC-257 melanoma
[18] = test system: SR leukemia
[19] = test system: SK-OV-3 ovarian
[20] = test system: IGROV1 ovarian
[21] = test system: MDA-MB-435
[22] = test system: SK-MEL-2 melanoma
[23] = test system: MCF7 breast
[24] = test system: LOX IMVI melanoma
[25] = test system: SF-268 CNS
[26] = test system: OVCAR-5 ovarian
[27] = test system: T-47D breast
[28] = test system: TK-10 renal
[29] = test system: A498 renal
[30] = test system: NCI-H522 lung
[31] = test system: K-562 leukemia
[32] = test system: HL-60(TB) leukemia
[33] = test system: OVCAR-3 ovarian
[34] = test system: ACHN renal
[35] = test system: HCC-2998 colon
[36] = test system: NCI-H23 lung
[37] = test system: OVCAR-4 ovarian
[38] = test system: OVCAR-8 ovarian
[39] = test system: BT-549 breast
[40] = test system: SF-295 CNS
[41] = test system: KM12 colon
[42] = test system: SNB-19 CNS
[43] = test system: DU-145 prostate
[44] = test system: NCI-H226 lung
[45] = test system: HT29 colon
[46] = test system: M14 melanoma
[47] = test system: MALME-3M melanoma
[48] = test system: COLO 205 colon
[49] = test system: CAKI-1 renal
[50] = test system: EKVX NSCLC
[51] = test system: HS 578T breast
[52] = test system: SNB-75 CNS
[53] = test system: SF-539 CNS
[54] = test system: A549 NSCLC
[55] = test system: 786-0 renal
[56] = test system: HOP-62 NSCLC
[57] = test system: UO-31 renal

## O=C1c2cccnc2C(=O)c2c1c(C(=O)OCCN1CCOCC1)c1ccccn21
[1]
  GI50: 0.0458 µM
  TGI: 2.12 µM
[2]
  GI50: 0.0417 µM
  TGI: 1.49 µM
[3]
  GI50: < 0.01 µM
  TGI: 3.23 µM
[4]
  GI50: < 0.01 µM
  TGI: 1.78 µM
[5]
  GI50: 0.126 µM
  TGI: 6.8 µM
[6]
  GI50: < 0.0187 µM
  TGI: 2.91 µM
[7]
  GI50: 0.0938 µM
  TGI: 3.22 µM
[8]
  GI50: 0.0914 µM
  TGI: 4.65 µM
[9]
  GI50: 0.0816 µM
  TGI: 17.1 µM
[10]
  GI50: < 0.01 µM
  TGI: 13 µM
[11]
  GI50: < 0.01 µM
  TGI: 0.11 µM
[12]
  GI50: < 0.01 µM
  TGI: 1.06 µM
[13]
  GI50: 0.0189 µM
  TGI: 0.135 µM
[14]
  GI50: 0.905 µM
  TGI: 41.2 µM
[15]
  GI50: 0.0262 µM
  TGI: 0.319 µM
[16]
  GI50: < 0.0104 µM
  TGI: 0.767 µM
[17]
  GI50: 0.0354 µM
  TGI: 0.592 µM
[18]
  GI50: < 0.01 µM
  TGI: 1.83 µM
[19]
  GI50: < 0.01 µM
  TGI: 0.0371 µM
[20]
  GI50: 0.0406 µM
  TGI: 9.91 µM
[21]
  GI50: 0.0387 µM
  TGI: 0.65 µM
[22]
  GI50: 0.0585 µM
  TGI: 1.61 µM
[23]
  GI50: < 0.01 µM
  TGI: 0.041 µM
[24]
  GI50: < 0.01 µM
  TGI: 0.384 µM
[25]
  GI50: < 0.0136 µM
  TGI: 16.2 µM
[26]
  GI50: 0.276 µM
  TGI: 1.65 µM
[27]
  GI50: 0.228 µM
  TGI: 5.25 µM
[28]
  GI50: 0.163 µM
  TGI: 2.72 µM
[29]
  GI50: 0.0236 µM
  TGI: 1.65 µM
[30]
  GI50: < 0.0109 µM
  TGI: 0.0449 µM
[31]
  GI50: 0.0198 µM
[32]
  GI50: 0.0789 µM
  TGI: 3.21 µM
[33]
  GI50: 0.0671 µM
  TGI: 1.11 µM
[34]
  GI50: < 0.01 µM
  TGI: 11.5 µM
[35]
  GI50: 0.252 µM
  TGI: 5.4 µM
[36]
  GI50: < 0.01 µM
[37]
  GI50: 1.07 µM
  TGI: 5.29 µM
[38]
  GI50: < 0.0168 µM
  TGI: 9.21 µM
[39]
  GI50: 0.05 µM
  TGI: 2.62 µM
[40]
  GI50: 0.0197 µM
  TGI: 1.05 µM
[41]
  GI50: 0.0725 µM
  TGI: 15.7 µM
[42]
  GI50: < 0.01 µM
  TGI: 3.15 µM
[43]
  GI50: < 0.0175 µM
  TGI: 1.31 µM
[44]
  GI50: < 0.017 µM
  TGI: 0.696 µM
[45]
  GI50: 0.316 µM
  TGI: 2.31 µM
[46]
  GI50: < 0.01 µM
  TGI: 0.116 µM
[47]
  GI50: 0.0353 µM
  TGI: 0.985 µM
[48]
  GI50: 0.137 µM
  TGI: 0.69 µM
[49]
  GI50: < 0.0184 µM
  TGI: 14.6 µM
[50]
  GI50: 1.54 µM
  TGI: 10.1 µM
[51]
  GI50: 0.0243 µM
  TGI: 10.8 µM
[52]
  GI50: < 0.01 µM
  TGI: 0.572 µM
[53]
  GI50: < 0.01 µM
  TGI: < 0.0212 µM
[54]
  GI50: 0.0205 µM
  TGI: 1.17 µM
[55]
  GI50: 0.0108 µM
  TGI: 2.22 µM
[56]
  GI50: < 0.01 µM
  TGI: < 0.0142 µM
[57]
  GI50: < 0.01 µM
